The subject of one assay is TXB2. The assay can be described thus: Assay of TXB2 in serum after oral administration. It is filed as in vivo. The conditions noted are these: 10 mg/kg orally, male rats, blood taken 1 hour later, incubated at 37° C for 90 minutes, Control 192.5. The protocol:
Experiment 3 (Assay of TXB2)
The test drug was orally administered to male rats, and 1 hour later, a blood sample was taken from ventral aorta via a polyethylene tube while anesthetized with ether. The blood taken was immediately incubated at 37° C for 90 minutes, and TXB2 was extracted from the serum separated, followed by assay using a [^3H]RIA Kit.

The test system of assay [1] is lipoperoxide production in rat brain. Kind of assay: Inhibitory activities on lipoperoxide production in rat brain (MDA yield, TBA method). The assay is classed as biochemical. To be noted: rat cerebrum suspension, 37° C for 30 minutes, lipoperoxide measured as MDA yield; read-out: Experiment 2 IC50 value. The method, then:
Experiment 2 (Inhibitory activities on lipoperoxide production in rat brain)
To male rats weighing about 300 g was intraperitoneally administered 100 mg/kg of sodium pentobar- bital and the rats were exsanguinated to death while anesthetized, after which the cerebrum was extracted. The extracted cerebrum was washed with ice-cooled physiological saline, dried gently, and weighed. Thereto was added 5-fold amount by weight of a 50 mM phosphatesaline buffer (pH 7.4), which was then suspended by an ultradisperser under ice-cooling, followed by centrifugation at 1300 g and at 4 C for 10 minutes. The supernatant was 5-fold diluted with the above buffer, and used as a suspension for measurement.
The suspension to which the test drug had been added at 1/100 volume was incubated at 37° C for 30 minutes, and the amount of the resulting lipoperoxide was measured as an MDA yield. The assay of MDA was conducted by a modified method based on Smith et al., and the absorbance of the TBA reaction product at 532 nm was measured.

Assay [2] concerns platelet rich plasma (PRP) from rabbits. Kind of assay: Inhibitory activities on platelet aggregation (arachidonic acid-induced, transmittance). To be noted: test drug 10^-6 M, rabbit PRP, aggregation induced by arachidonic acid (0.1 mM); for inhibition at 1 µM: Oryctolagus cuniculus, Platelet, read-out: Experiment 1 10^-6 M inhibition (%). The assay is classed as cell-based. The protocol:
Experiment 1 (Inhibitory activities on platelet aggregation)
Platelet aggregation of platelet rich plasma (PRP) from rabbits was measured with the use of an NKK- hematracer (Niko Bioscience). That is, to PRP (200µ 1) was added a test drug or a solvent at 37°C while stirring at 1000 rpm, and an aggregation-inducing agent was added thereto 1 minute later, to measure the changes in transmittance caused by the platelet aggregation. Arachidonic acid (0.1 mM) was used as the aggregation-inducing agent.

With `O=C(O)CCCC/C=C(\c1ccccc1)c1cccnc1` [CV-4151, reference compound], the “TXB2” value in the assay with TXB2 stood at 11.0 ng/mL. In general, IC50 refers to the concentration at which inhibition is half-maximal. As usually defined, the inhibition is how much of the control response was suppressed. Take `CCOC(=O)CCN1CC(CCn2ccnc2)c2ccccc21` (stereo not shown) [Example 1]: the IC50 in assay [1] came to 93 µM. The inhibition at 1 µM in assay [2] worked out at 40.3%.

As to `O=C(O)CCN1CC(CCn2ccnc2)c2ccccc21` (stereo not shown) [Example 2, 3-[2-(1 H-Imidazol-1-yl)ethyl]-1-indolinepropionic acid], the inhibition at 1 µM in assay [2] was determined as 8.7%. As for `CCCCCCOc1ccc2c(c1)C(CCn1ccnc1)CN2CCC(=O)OCC` (stereo not shown) [Example 8, Ethyl 5-hexyloxy-3-[2-(1 H-imidazol-1-yl)ethyl]-1-indolinepropionate], the IC50 in assay [1] was determined as 2.6 µM. The inhibition at 1 µM in assay [2] turned out to be 20.8%. With `CCCCCCOc1ccc2c(c1)C(CCn1ccnc1)CN2CCC(=O)O` (stereo not shown) [Example 9, 5-Hexyloxy-3-[2-(1H-imidazol-1-yl)ethyl]-1-indolinepropionic acid], the inhibition at 1 µM in assay [2] was 28.3%. `CCOC(=O)CCN1CC(CCn2ccnc2)c2cc(OC)ccc21` (stereo not shown) [Example 10]: the IC50 in assay [1] amounted to 18.7 µM. Also, in assay [2], the inhibition at 1 µM was 54.5%. Take `COc1ccc2c(c1)C(CCn1ccnc1)CN2CCC(=O)O` (stereo not shown) [Example 11]: the IC50 in assay [1] is 73 µM. For the same molecule, the inhibition at 1 µM in assay [2] was found to be 36%. `CCCc1ccc2c(c1)C(CCn1ccnc1)CN2CCC(=O)OCC` (stereo not shown) [Example 12]: the IC50 in assay [1] turned out to be 4.8 µM. Also, the inhibition at 1 µM in assay [2] came out at 19.7%. As to `CCCc1ccc2c(c1)C(CCn1ccnc1)CN2CCC(=O)O` (stereo not shown) [Example 13], the IC50 in assay [1] came to 21.9 µM. For the same molecule, in assay [2], the inhibition at 1 µM was 10.4%. Take `CCOC(=O)CCN1CC(CCn2ccnc2)c2cc(C(C)C)ccc21` (stereo not shown) [Example 14]: the IC50 in assay [1] was found to be 6 µM. For the same molecule, the inhibition at 1 µM in assay [2] came out at 14.5%. For the molecule `CC(C)c1ccc2c(c1)C(CCn1ccnc1)CN2CCC(=O)O` (stereo not shown) [Example 15], the IC50 in assay [1] was found to be 24.8 µM. In addition, the inhibition at 1 µM in assay [2] was determined as 1.6%.

On to `CCOC(=O)CCN1CC(CCn2ccnc2)c2cc(C3CCCCC3)ccc21` (stereo not shown) [Example 16], for which, in assay [2], the inhibition at 1 µM is 2.1%. As for `O=C(O)CCN1CC(CCn2ccnc2)c2cc(C3CCCCC3)ccc21` (stereo not shown) [Example 17], the IC50 in assay [1] is 2.05 µM. Besides, the inhibition at 1 µM in assay [2] came out at 15.7%. Turning to `CCCOc1ccc2c(c1)C(CCn1ccnc1)CN2CCC(=O)OCC` (stereo not shown) [Example 18], in assay [2], the inhibition at 1 µM was determined as 21.8%. Regarding `CCCOc1ccc2c(c1)C(CCn1ccnc1)CN2CCC(=O)O` (stereo not shown) [Example 19], in assay [1], the IC50 amounted to 19.4 µM. In assay [2], the inhibition at 1 µM came to 3.6%.

With `CCCCCOc1ccc2c(c1)C(CCn1ccnc1)CN2CCC(=O)OCC` (stereo not shown) [Example 20], the IC50 in assay [1] turned out to be 2.05 µM. The “TXB2” value in the assay on TXB2 turned out to be 5.1 ng/mL. Also, in assay [2], the inhibition at 1 µM was 45.2%. With `CCCCCOc1ccc2c(c1)C(CCn1ccnc1)CN2CCC(=O)O` (stereo not shown) [Example 21], the IC50 in assay [1] amounted to 1.84 µM. Besides, the “TXB2” value with TXB2 worked out at 6.7 ng/mL. Besides, in assay [2], the inhibition at 1 µM worked out at 5.5%. In the case of `CCCCCCCOc1ccc2c(c1)C(CCn1ccnc1)CN2CCC(=O)OCC` (stereo not shown) [Example 22], the inhibition at 1 µM in assay [2] was determined as 37%. For the molecule `CCCCCCCOc1ccc2c(c1)C(CCn1ccnc1)CN2CCC(=O)O` (stereo not shown) [Example 23], the IC50 in assay [1] was 0.25 µM. Further, the inhibition at 1 µM in assay [2] is 11.5%. With `CCCCCCCCCOc1ccc2c(c1)C(CCn1ccnc1)CN2CCC(=O)OCC` (stereo not shown) [Example 26], the inhibition at 1 µM in assay [2] worked out at 40.5%.

For the molecule `CCCCCCCCCOc1ccc2c(c1)C(CCn1ccnc1)CN2CCC(=O)O` (stereo not shown) [Example 27], the IC50 in assay [1] was 0.26 µM. Besides, the “TXB2” value in the assay on TXB2 is 4.8 ng/mL. In addition, the inhibition at 1 µM in assay [2] came to 27%. For `CCCCCCCCCCCCOc1ccc2c(c1)C(CCn1ccnc1)CN2CCC(=O)O` (stereo not shown) [Example 29], the IC50 in assay [1] was 0.24 µM. Also, the inhibition at 1 µM in assay [2] is 12.1%. In the case of `C=CCOc1ccc2c(c1)C(CCn1ccnc1)CN2CCC(=O)OCC` (stereo not shown) [Example 30], the inhibition at 1 µM in assay [2] is 28.4%. As to `C=CCOc1ccc2c(c1)C(CCn1ccnc1)CN2CCC(=O)O` (stereo not shown) [Example 31], the IC50 in assay [1] amounted to 20.3 µM. The inhibition at 1 µM in assay [2] was 0.2%. With `O=C(O)/C=C/c1ccc(Cn2ccnc2)cc1` [OKY-046, reference compound], the inhibition at 1 µM in assay [2] was found to be 4%. “Ethyl 3-[2-(1 H-imidazol-1-yl)ethyl]-1-indolineacetate [Example 5]”: the IC50 in assay [1] came to 25 µM. Also, the “Experiment 1 10^-6 M inhibition (%)” value in assay [2] was 20.3%.

Source of the values: patent EP0427860A1, “NEW IMIDAZOLE DERIVATIVES, PRODUCTION THEREOF, AND USES THEREOF AS MEDICINES” (Kyoto Pharmaceutical Industries, Ltd., priority 1989, dated 1990).
